This passage reports IC50 results from US10112929B2, “Lactams as inhibitors of rock” (BRISTOL-MYERS SQUIBB COMPANY, priority 2015, dated 2018).
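Note: rho kinase enzyme reaction halted with EDTA, phospho- and non-phospho peptide separated for read-out, kinase activity inhibition derived across a dose-response series, DMSO under 2%.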

Chain of ROCK2 (O75116 whole entry, species assumed): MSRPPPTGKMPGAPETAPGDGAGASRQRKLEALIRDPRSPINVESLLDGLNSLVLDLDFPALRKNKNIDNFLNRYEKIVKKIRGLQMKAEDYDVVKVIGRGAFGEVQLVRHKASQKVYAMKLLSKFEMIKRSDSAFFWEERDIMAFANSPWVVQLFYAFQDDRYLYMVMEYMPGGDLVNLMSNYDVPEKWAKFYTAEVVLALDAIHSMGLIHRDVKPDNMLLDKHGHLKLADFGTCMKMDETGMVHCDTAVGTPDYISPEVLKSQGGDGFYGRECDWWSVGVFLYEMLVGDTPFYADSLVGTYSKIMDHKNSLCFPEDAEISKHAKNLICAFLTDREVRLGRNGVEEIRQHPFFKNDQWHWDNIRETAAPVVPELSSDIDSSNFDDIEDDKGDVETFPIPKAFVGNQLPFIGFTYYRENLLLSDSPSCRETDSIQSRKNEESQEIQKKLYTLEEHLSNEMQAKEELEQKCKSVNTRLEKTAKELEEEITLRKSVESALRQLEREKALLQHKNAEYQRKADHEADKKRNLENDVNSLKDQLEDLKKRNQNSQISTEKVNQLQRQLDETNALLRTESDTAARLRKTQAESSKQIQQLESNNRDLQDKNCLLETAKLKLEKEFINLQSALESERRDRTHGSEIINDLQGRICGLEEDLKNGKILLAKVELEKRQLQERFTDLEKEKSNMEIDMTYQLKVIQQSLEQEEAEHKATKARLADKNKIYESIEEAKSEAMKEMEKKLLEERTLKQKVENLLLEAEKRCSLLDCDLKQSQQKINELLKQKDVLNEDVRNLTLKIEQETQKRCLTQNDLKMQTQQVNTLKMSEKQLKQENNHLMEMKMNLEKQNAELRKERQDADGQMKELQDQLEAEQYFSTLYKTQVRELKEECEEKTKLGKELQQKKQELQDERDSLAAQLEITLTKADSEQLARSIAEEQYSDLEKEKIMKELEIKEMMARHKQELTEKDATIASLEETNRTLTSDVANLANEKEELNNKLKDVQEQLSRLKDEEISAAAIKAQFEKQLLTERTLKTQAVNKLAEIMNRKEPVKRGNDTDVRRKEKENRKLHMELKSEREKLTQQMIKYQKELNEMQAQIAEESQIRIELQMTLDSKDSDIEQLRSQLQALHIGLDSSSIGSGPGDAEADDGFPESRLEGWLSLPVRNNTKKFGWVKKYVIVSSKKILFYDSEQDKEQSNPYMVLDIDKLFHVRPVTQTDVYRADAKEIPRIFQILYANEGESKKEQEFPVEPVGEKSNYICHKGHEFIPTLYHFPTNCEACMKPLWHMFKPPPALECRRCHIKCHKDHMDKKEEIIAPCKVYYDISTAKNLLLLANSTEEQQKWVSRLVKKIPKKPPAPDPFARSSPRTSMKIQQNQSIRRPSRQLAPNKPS

The assay addresses ROCK2 (Homo sapiens (Human), UniProt O75116). Put plainly: biochemical.
For orientation: IC50 means the concentration at which inhibition is half-maximal. A higher IC50 goes with weaker potency. As for `COc1cc(NC2CCN(c3cc(F)c(-c4cn[nH]c4)cc3F)C2=O)ccc1F` (single isomer, unassigned) [Example 350, 1-(2,5-difluoro-4-(1H-pyrazol-4-yl)phenyl)-3-((4-fluoro-3-methoxyphenyl)amino)pyrrolidin-2-one], the concentration for half-maximal inhibition (IC50) fell in the range of 100 to 2200 nM.
As for `COc1cc(F)cc(NC2CCN(c3cc(F)c(-c4cn[nH]c4)cc3F)C2=O)c1` (single isomer, unassigned) [Example 351, 1-(2,5-difluoro-4-(1H-pyrazol-4-yl)phenyl)-3-((3-fluoro-5-methoxyphenyl)amino)pyrrolidin-2-one], the concentration for half-maximal inhibition (IC50) was 10 to 100 nM.
In turn, `COc1cc(F)cc(NC2CCN(c3cc(F)c(-c4cn[nH]c4)cc3F)C2=O)c1` (single isomer, unassigned) [Example 352, 1-(2,5-difluoro-4-(1H-pyrazol-4-yl)phenyl)-3-((3-fluoro-5-methoxyphenyl)amino)pyrrolidin-2-one] registered an IC50 of less than 10 nM.
In turn, `COc1cccc(NC2CCN(c3cc(F)c(-c4cn[nH]c4)cc3F)C2=O)c1` (single isomer, unassigned) [Example 353, 1-(2,5-difluoro-4-(1H-pyrazol-4-yl)phenyl)-3-((3-methoxyphenyl)amino)pyrrolidin-2-one] yielded an IC50 of 10 to 100 nM.
Molecule `O=C1C(Nc2cccc(OC(F)F)c2)CCN1c1ccc(-c2cn[nH]c2)c(F)c1` (single isomer, unassigned) [Example 355, 3-((3-(difluoromethoxy)phenyl)amino)-1-(3-fluoro-4-(1H-pyrazol-4-yl)phenyl) pyrrolidin-2-one] had an IC50 of 10 to 100 nM.
With `COc1cccc(NC2CCN(c3ncc(-c4cn[nH]c4)cc3F)C2=O)c1` (single isomer, unassigned) [Example 357, 1-(3-fluoro-5-(1H-pyrazol-4-yl)pyridin-2-yl)-3-((3-methoxyphenyl)amino) pyrrolidin-2-one] the figure was 100 to 2200 nM; with `COc1cc(F)cc(NC2CCN(c3ncc(-c4cn[nH]c4)cc3F)C2=O)c1` (single isomer, unassigned) [Example 359, 1-(3-fluoro-5-(1H-pyrazol-4-yl)pyridin-2-yl)-3-((3-fluoro-5-methoxyphenyl)amino) pyrrolidin-2-one], 100 to 2200 nM; with `O=C1C(Nc2cccc(OCC3CC3)c2)CCN1c1ccc(-c2cn[nH]c2)c(F)c1` (single isomer, unassigned) [Example 361, 3-((3-(cyclopropylmethoxy)phenyl)amino)-1-(3-fluoro-4-(1H-pyrazol-4-yl)phenyl)pyrrolidin-2-one], less than 10 nM.
With `O=C1C(Nc2cccc(OCC3CC3)c2)CCN1c1ccc(-c2cn[nH]c2)c(F)c1` (single isomer, unassigned) [Example 362, 3-((3-(cyclopropylmethoxy)phenyl)amino)-1-(3-fluoro-4-(1H-pyrazol-4-yl)phenyl)pyrrolidin-2-one] the figure was 10 to 100 nM; with `COc1cccc(NC2CCN(c3ccc(-c4cn[nH]c4)c(C4CC4)c3)C2=O)c1` (single isomer, unassigned) [Example 363, 1-(3-cyclopropyl-4-(1H-pyrazol-4-yl)phenyl)-3-((3-methoxyphenyl)amino) pyrrolidin-2-one], 10 to 100 nM; with `COc1ccc(F)c(NC2CCN(c3ccc(-c4cn[nH]c4)c(C)c3)C2=O)c1` (single isomer, unassigned) [Example 364, 3-((2-fluoro-5-methoxyphenyl)amino)-1-(3-methyl-4-(1H-pyrazol-4-yl)phenyl) pyrrolidin-2-one], 10 to 100 nM.
The result for `COc1cc(NC2CCN(c3ccc(-c4cn[nH]c4)c(C)c3)C2=O)cc(OC)c1` (single isomer, unassigned) [Example 366, 3-((3,5-dimethoxyphenyl)amino)-1-(3-methyl-4-(1H-pyrazol-4-yl)phenyl) pyrrolidin-2-one] reads 100 to 2200 nM.
On to `COc1cccc(NC2CCN(c3ccc(-c4cn[nH]c4)c(C(F)(F)F)c3)C2=O)c1` (single isomer, unassigned) [Example 367, 1-(4-(1H-pyrazol-4-yl)-3-(trifluoromethyl)phenyl)-3-((3-methoxyphenyl)amino) pyrrolidin-2-one], for which the IC50 is 100 to 2200 nM.
As to `COc1cc(F)cc(NC2CCN(c3ccc(-c4cn[nH]c4)c(C(F)(F)F)c3)C2=O)c1` (single isomer, unassigned) [Example 369, 1-(4-(1H-pyrazol-4-yl)-3-(trifluoromethyl)phenyl)-3-((3-fluoro-5-methoxyphenyl)amino)pyrrolidin-2-one], the IC50 fell in the range of 100 to 2200 nM.
In the case of `COc1cc(F)cc(NC2CCN(c3ccc(-c4cn[nH]c4)c(C(F)(F)F)c3)C2=O)c1` (single isomer, unassigned) [Example 370, 1-(4-(1H-pyrazol-4-yl)-3-(trifluoromethyl)phenyl)-3-((3-fluoro-5-methoxyphenyl)amino)pyrrolidin-2-one], the IC50 lay in the range of 10 to 100 nM.
As to `COc1cc(NC2CCN(c3ccc(-c4cn[nH]c4)c(C(F)(F)F)c3)C2=O)ccc1F` (single isomer, unassigned) [Example 371, 1-(4-(1H-pyrazol-4-yl)-3-(trifluoromethyl)phenyl)-3-((4-fluoro-3-methoxyphenyl)amino)pyrrolidin-2-one], the IC50 was 100 to 2200 nM.
The result for `COc1ccc(F)c(NC2CCN(c3ccc(-c4cn[nH]c4)c(C(F)(F)F)c3)C2=O)c1` (single isomer, unassigned) [Example 373, 1-(4-(1H-pyrazol-4-yl)-3-(trifluoromethyl)phenyl)-3-((2-fluoro-5-methoxyphenyl)amino)pyrrolidin-2-one] reads 100 to 2200 nM.
Take `COc1cc(F)cc(NC2CCN(c3ccc(-c4cn[nH]c4)c(C#N)c3)C2=O)c1` (single isomer, unassigned) [Example 374, 5-(3-((3-fluoro-5-methoxyphenyl)amino)-2-oxopyrrolidin-1-yl)-2-(1H-pyrazol-4-yl)benzonitrile]: the IC50 lay in the range of 100 to 2200 nM.
The result for `COc1cc(F)cc(NC2CCN(c3ccc(-c4cn[nH]c4)c(C#N)c3)C2=O)c1` (single isomer, unassigned) [Example 375, 5-(3-((3-fluoro-5-methoxyphenyl)amino)-2-oxopyrrolidin-1-yl)-2-(1H-pyrazol-4-yl)benzonitrile] reads 10 to 100 nM; that for `COc1c(F)cccc1NC1CCN(c2ccc(-c3cn[nH]c3)c(C#N)c2)C1=O` (single isomer, unassigned) [Example 376, 5-(3-((3-fluoro-2-methoxyphenyl)amino)-2-oxopyrrolidin-1-yl)-2-(1H-pyrazol-4-yl)benzonitrile], 100 to 2200 nM; that for `COc1cccc(NC2CCN(c3ccc(-c4cn[nH]c4)c(C#N)c3)C2=O)c1` (single isomer, unassigned) [Example 377, 5-(3-((3-methoxyphenyl)amino)-2-oxopyrrolidin-1-yl)-2-(1H-pyrazol-4-yl)benzonitrile], 100 to 2200 nM.
`COc1cccc(NC2CCN(c3ccc(-c4cn[nH]c4)c(C#N)c3)C2=O)c1` (single isomer, unassigned) [Example 378, 5-(3-((3-methoxyphenyl)amino)-2-oxopyrrolidin-1-yl)-2-(1H-pyrazol-4-yl)benzonitrile]: the IC50 lay within 10 to 100 nM.
With `COc1cc(NC2CCN(c3ccc(-c4cn[nH]c4)c(C#N)c3)C2=O)ccc1F` (single isomer, unassigned) [Example 379, 5-(3-((4-fluoro-3-methoxyphenyl)amino)-2-oxopyrrolidin-1-yl)-2-(1H-pyrazol-4-yl)benzonitrile] the figure was 100 to 2200 nM.
On to `COc1c(F)cccc1NC1CCN(c2ccc(-c3cn[nH]c3)cc2)C1=O` (stereo not shown) [Example 1, 1-(4-(1H-Pyrazol-4-yl)phenyl)-3-((3-fluoro-2-methoxyphenyl)amino)pyrrolidin-2-one], for which the IC50 is less than 10 nM.
With `Cc1cccc(NC2CCN(c3ccc(-c4cn[nH]c4)cc3)C2=O)c1` (stereo not shown) [Example 2, 1-(4-(1H-pyrazol-4-yl)phenyl)-3-(m-tolylamino)pyrrolidin-2-one] the figure was 10 to 100 nM; with `COc1cc(F)cc(NC2CCN(c3ccc(-c4cn[nH]c4)cc3)C2=O)c1` (stereo not shown) [Example 3, 1-(4-(1H-pyrazol-4-yl)phenyl)-3-((3-fluoro-5-methoxyphenyl)amino)pyrrolidin-2-one], less than 10 nM; with `COc1cc(NC2CCN(c3ccc(-c4cn[nH]c4)cc3)C2=O)ccc1F` (stereo not shown) [Example 4, 1-(4-(1H-pyrazol-4-yl)phenyl)-3-((4-fluoro-3-methoxyphenyl)amino)pyrrolidin-2-one], less than 10 nM.
Molecule `COc1ccc(F)cc1NC1CCN(c2ccc(-c3cn[nH]c3)cc2)C1=O` (stereo not shown) [Example 5, 1-(4-(1H-pyrazol-4-yl)phenyl)-3-((5-fluoro-2-methoxyphenyl)amino)pyrrolidin-2-one] had an IC50 of 10 to 100 nM.
With `CCOc1cccc(NC2CCN(c3ccc(-c4cn[nH]c4)cc3)C2=O)c1` (stereo not shown) [Example 6, 1-(4-(1H-pyrazol-4-yl)phenyl)-3-((3-ethoxyphenyl)amino)pyrrolidin-2-one] the figure was less than 10 nM.
With `O=C1C(Nc2cccc(OC(F)F)c2)CCN1c1ccc(-c2cn[nH]c2)cc1` (stereo not shown) [Example 7, 1-(4-(1H-pyrazol-4-yl)phenyl)-3-((3-(difluoromethoxy)phenyl)amino)pyrrolidin-2-one] the figure was less than 10 nM; with `O=C1C(Nc2cccc(OC(F)(F)F)c2)CCN1c1ccc(-c2cn[nH]c2)cc1` (stereo not shown) [Example 8, 1-(4-(1H-pyrazol-4-yl)phenyl)-3-((3-(trifluoromethoxy)phenyl)amino)pyrrolidin-2-one], 10 to 100 nM.
Molecule `O=C1C(Nc2cccnc2)CCN1c1ccc(-c2cn[nH]c2)cc1` (stereo not shown) [Example 9, 1-(4-(1H-pyrazol-4-yl)phenyl)-3-(pyridin-3-ylamino)pyrrolidin-2-one] showed a half-inhibitory concentration (IC50) of 10 to 100 nM.
The result for `CC(C)Oc1cccc(NC2CCN(c3ccc(-c4cn[nH]c4)cc3)C2=O)c1` (stereo not shown) [Example 10, 1-(4-(1H-pyrazol-4-yl)phenyl)-3-((3-isopropoxyphenyl)amino)pyrrolidin-2-one] reads 10 to 100 nM; that for `O=C1C(Nc2cccc(OCC3CC3)c2)CCN1c1ccc(-c2cn[nH]c2)cc1` (stereo not shown) [Example 11, 1-(4-(1H-pyrazol-4-yl)phenyl)-3-((3-(cyclopropylmethoxy)phenyl)amino)pyrrolidin-2-one], less than 10 nM.
